This note sets out measurements from ChEMBL document CHEMBL1201862, “PubChem BioAssay data set” (2004).

Test systems include PC-3; HOP-62; UO-31; EKVX; U-251; LOX IMVI; SW-620; Malme-3M; NCI-H522; KM12; NCI-H23; MOLT-4; SK-MEL-28; MCF7; SNB-19; RPMI-8226; HCT-15; NCI-H460; HCC 2998.
Holding throughout (test): DTP human tumour cell line panel, 48 h

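Five concentrations, 48 hours, 96-well plates. GI50 is the concentration that inhibits growth by half.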 Calls of active or inactive are those of the source. Rule as the data show it: active = GI50 up to about 1.1 µM and inactive = higher. Bounds are passed on as bounds.

Regarding `CSc1[nH]cnc1C(N)=S`, the GI50 in the assay on PC-3, in the assay on HOP-62, in the assay with UO-31, with EKVX, with U-251 and in the assay on LOX IMVI was > 100 µM (inactive) each time. Also, the GI50 in the assay on SW-620, with Malme-3M, with NCI-H522, with KM12, in the assay on NCI-H23 and in the assay with MOLT-4 was > 100 µM (inactive) in each case. For the same compound, the GI50 in the assay with SK-MEL-28, in the assay on MCF7, with SNB-19 and in the assay with RPMI-8226 was > 100 µM (inactive) each time.
In the case of `Cc1cn(CCCCCCOC(=O)NC(CCCNC(=N)N)C(=O)O)c(=O)[nH]c1=O` (stereo not given), the GI50 in the assay with PC-3 was > 100 µM (inactive); in the assay on HOP-62 it was > 100 µM (inactive); in the assay on UO-31, > 100 µM (inactive); with HCT-15, > 100 µM; in the assay on EKVX, > 100 µM (inactive); in the assay on U-251 it was > 100 µM (inactive). For the same compound, the GI50 with LOX IMVI, in the assay on SW-620, with NCI-H460, in the assay on HCC 2998, in the assay with KM12 and in the assay on NCI-H23 was > 100 µM (inactive) in each case. Moreover, the GI50 with MOLT-4, with SK-MEL-28, in the assay with MCF7, in the assay with SNB-19 and with RPMI-8226 was > 100 µM (inactive) throughout.
Regarding `COC(=O)C1(C)NCCc2c1[nH]c1ccccc21` (stereo not given), the GI50 with HOP-62 was > 100 µM (inactive); with UO-31 it was > 100 µM (inactive); with HCT-15 it was > 100 µM; in the assay on EKVX, > 100 µM (inactive); in the assay on U-251 it was > 100 µM (inactive); with SW-620, > 100 µM (inactive). For the same compound, the GI50 in the assay on Malme-3M, in the assay on NCI-H522, in the assay on HCC 2998, in the assay on KM12, in the assay with NCI-H23 and with MOLT-4 was > 100 µM (inactive) in each case. Also, the GI50 in the assay with SK-MEL-28, in the assay on SNB-19 and in the assay on RPMI-8226 was > 100 µM (inactive) throughout.
For the compound `COc1ccc(NC(S)=Nc2cccc(C)n2)cc1`, the GI50 is > 100 µM (inactive) with PC-3; 25.6 µM (inactive) in the assay on HOP-62; > 100 µM (inactive) in the assay with UO-31; 78.2 µM in the assay on HCT-15; > 100 µM (inactive) in the assay with EKVX; 33.5 µM (inactive) in the assay with U-251. The GI50 with LOX IMVI was > 100 µM (inactive); in the assay with SW-620 it was > 100 µM (inactive); with NCI-H460, > 100 µM (inactive); in the assay with HCC 2998, > 100 µM (inactive); in the assay with KM12, > 100 µM (inactive); in the assay with NCI-H23, 84.5 µM (inactive). The GI50 in the assay with MOLT-4, in the assay with SK-MEL-28, in the assay with MCF7, in the assay with SNB-19 and in the assay with RPMI-8226 was > 100 µM (inactive) in each case.
As to `COc1ccc(C2OCCN2C)cc1` (stereo not given), the GI50 in the assay with PC-3 was > 100 µM (inactive); in the assay on HOP-62, > 100 µM (inactive); in the assay on UO-31, > 100 µM (inactive); in the assay on HCT-15 it was > 100 µM; in the assay with EKVX it was > 100 µM (inactive); with U-251, > 100 µM (inactive). Further, the GI50 in the assay on LOX IMVI was 58.2 µM (inactive); with SW-620, > 100 µM (inactive); in the assay on Malme-3M it was > 100 µM (inactive); with NCI-H522, > 100 µM (inactive); in the assay with NCI-H460, 87.1 µM (inactive); in the assay on KM12, > 100 µM (inactive). In addition, the GI50 with NCI-H23, in the assay on MOLT-4, with MCF7, in the assay on SNB-19 and in the assay on RPMI-8226 was > 100 µM (inactive) in each case.
Take `O=C(O)c1cccc(S(=O)(=O)NN2C(=O)CSC2c2c(O)ccc3ccccc23)c1` (stereo not given): the GI50 is 33 µM (inactive) with PC-3; 47 µM (inactive) in the assay on HOP-62; 33.4 µM (inactive) with UO-31; 42.5 µM with HCT-15; 45.8 µM (inactive) with EKVX; 34.3 µM (inactive) with U-251. In addition, the GI50 in the assay with LOX IMVI was 27.4 µM (inactive); with SW-620 it was 21.1 µM (inactive); in the assay on Malme-3M it was 26.5 µM (inactive); in the assay with NCI-H522 it was 27.8 µM (inactive); in the assay on NCI-H460, 34.7 µM (inactive); in the assay with HCC 2998, 52.6 µM (inactive). The GI50 in the assay on KM12 is 41.3 µM (inactive); in the assay with NCI-H23, 21.7 µM (inactive); in the assay on MOLT-4, 19 µM (inactive); in the assay with SK-MEL-28, 26.4 µM (inactive); in the assay with SNB-19 it was 26.4 µM (inactive).
Consider `NC(=O)c1sc2nc3ccccc3n2c1N`, for which the GI50 in the assay with PC-3 is > 100 µM (inactive); with HOP-62 it was 32.8 µM (inactive); in the assay on UO-31, > 100 µM (inactive); in the assay with HCT-15 it was > 100 µM; in the assay on EKVX it was 67.5 µM (inactive); in the assay on U-251 it was 28.2 µM (inactive). Besides, the GI50 in the assay on LOX IMVI was 36.1 µM (inactive); in the assay with SW-620 it was > 100 µM (inactive); in the assay with Malme-3M, > 100 µM (inactive); in the assay with HCC 2998, 86.7 µM (inactive); in the assay with NCI-H23 it was 17.4 µM (inactive); in the assay with MOLT-4, > 100 µM (inactive). Also, the GI50 with SK-MEL-28 was > 100 µM (inactive); in the assay with MCF7, > 100 µM (inactive); in the assay with SNB-19 it was 51.8 µM (inactive); with RPMI-8226, > 100 µM (inactive).
`COc1ccc2nc3cc(Cl)ccc3c(NC(C)CCCN(CCCl)CCCl)c2c1` (stereo not given): the GI50 in the assay with HOP-62 was 1.4 µM (inactive); in the assay on UO-31 it was 2.04 µM (inactive); in the assay on HCT-15, 1.11 µM; in the assay on EKVX, 0.787 µM (active); in the assay on U-251 it was 0.607 µM (active); in the assay with LOX IMVI, 0.176 µM (active). The GI50 with SW-620 was 0.116 µM (active); in the assay with Malme-3M, 1.85 µM (inactive); in the assay on NCI-H522, 0.55 µM (active); in the assay with NCI-H460 it was 0.159 µM (active); in the assay with HCC 2998, 1.35 µM (inactive); in the assay with KM12 it was 0.52 µM (active). For the same compound, the GI50 in the assay on NCI-H23 is 0.51 µM (active); in the assay with MOLT-4, 0.054 µM (active); with SK-MEL-28 it was 5 µM (inactive); with SNB-19, 0.74 µM (active); in the assay on RPMI-8226 it was 0.293 µM (active).
For `COc1ccc(C(=O)C(C(=O)CC(=O)Nc2cccc(C(F)(F)F)c2)c2ccc(OC)cc2)cc1` (stereo not given), the GI50 with HOP-62 is > 100 µM (inactive); with UO-31, > 100 µM (inactive); with HCT-15, > 100 µM; with EKVX, > 100 µM (inactive); in the assay with U-251 it was > 100 µM (inactive); in the assay on SW-620, > 100 µM (inactive). The GI50 with Malme-3M, in the assay on NCI-H522, with NCI-H460, with HCC 2998, in the assay on KM12 and in the assay on NCI-H23 was > 100 µM (inactive) throughout. In addition, the GI50 in the assay with MOLT-4, in the assay with SK-MEL-28, in the assay with SNB-19 and in the assay on RPMI-8226 was > 100 µM (inactive) each time.
As to `N=C(CC/C(N)=N/O)NO`, the GI50 in the assay with PC-3 was > 100 µM (inactive); in the assay with HOP-62 it was > 100 µM (inactive); with UO-31 it was > 100 µM (inactive); in the assay with HCT-15, > 100 µM; in the assay on EKVX it was > 100 µM (inactive); with U-251, > 100 µM (inactive). Further, the GI50 in the assay with LOX IMVI, in the assay on SW-620, in the assay with Malme-3M, in the assay on NCI-H522, in the assay on NCI-H460 and in the assay on HCC 2998 was > 100 µM (inactive) throughout. For the same compound, the GI50 in the assay on KM12, with NCI-H23, with MOLT-4, in the assay with SK-MEL-28 and with SNB-19 was > 100 µM (inactive) in each case.
As for `CN(C)/C=N\c1cccc2cnccc12`, the GI50 is > 100 µM (inactive) in the assay on PC-3; > 100 µM (inactive) in the assay on HOP-62; > 100 µM (inactive) in the assay on UO-31; > 100 µM in the assay on HCT-15; > 100 µM (inactive) in the assay on EKVX; > 100 µM (inactive) in the assay with U-251. The GI50 in the assay on LOX IMVI, in the assay with Malme-3M, with NCI-H522, in the assay on NCI-H23, with MOLT-4 and in the assay with SK-MEL-28 was > 100 µM (inactive) each time. In addition, the GI50 with MCF7, in the assay on SNB-19 and with RPMI-8226 was > 100 µM (inactive) each time.
Consider `CN(C)C(=N)c1ccccc1`, for which the GI50 in the assay with HOP-62, with UO-31, in the assay on U-251, with LOX IMVI, in the assay with SW-620 and in the assay on Malme-3M was > 100 µM (inactive) in each case. For the same compound, the GI50 in the assay on NCI-H522, in the assay with NCI-H460, in the assay on HCC 2998, in the assay on KM12, in the assay on NCI-H23 and with SK-MEL-28 was > 100 µM (inactive) throughout. Further, in the assay on SNB-19, the GI50 is > 100 µM (inactive).
On to `CCOC(=O)NC`, for which the GI50 is > 100 µM (inactive) in the assay on PC-3; > 100 µM (inactive) with HOP-62; > 100 µM (inactive) in the assay with UO-31; > 100 µM with HCT-15; > 100 µM (inactive) in the assay with EKVX; > 100 µM (inactive) in the assay on U-251. Also, the GI50 in the assay with LOX IMVI, in the assay on SW-620, in the assay on Malme-3M, in the assay on NCI-H460, in the assay on HCC 2998 and with KM12 was > 100 µM (inactive) throughout. The GI50 in the assay with NCI-H23, with SK-MEL-28, in the assay on MCF7, in the assay on SNB-19 and in the assay with RPMI-8226 was > 100 µM (inactive) each time.

As usually defined, the GI50 is the concentration giving 50% growth inhibition.
